Results taken from US20260174778A1, “SULFONAMIDE COMPOUND, AND PREPARATION METHOD THEREFOR AND USE THEREOF” (SHANGHAI HENLIUS BIOTECH, INC., priority 2023, published 2026).

Test system: human breast cancer ZR-75-1 cell xenograft tumor
Test: Anti-tumor effect in ER+KAT6high breast cancer cell xenograft tumor model (Test Example 5)
Type: in vivo, Balb/c nude mice
Details: for T/C / TGI / mean tumor volume: day 35; for body weight changes compared to the PF-8144 group: all doses (0.01, 0.1, 2 mg/kg)
Method: Test Example 5: Anti-Tumor Effects of Test Compounds in ER^+KAT6^high Breast Cancer Cell-Xenograft Tumor Model
Assay method: ZR-75-1 cells were subcutaneously inoculated into the right back of each mouse to evaluate the efficacy of the compounds in the subcutaneous xenograft tumor model of ZR-75-1 cells.
• 1. Cell culture: ZR-75-1 cells were cultured as a monolayer in vitro under the following culture conditions: an RPMI 1640 medium supplemented with 10% fetal bovine serum and 1% Anti-anti (Antibiotic-Antimycotic), incubated in an incubator at 37° C. with 5% CO2. The cells were digested with trypsin-EDTA twice a week for passaging as per conventional practice. When the cell saturation reached 80%-90% and the quantity met the requirement, the cells were harvested, counted, and inoculated. • 2. Animals: Balb/c nude mice, female, 6-8 weeks old, weighing 18-22 g. A total of 128 mice were required (80 mice were enrolled). They were provided by Vital River. • 3. Tumor inoculation: Two days before tumor inoculation, 17-beta estradiol tablets (0.18 mg) were subcutaneously administered, and 10 million ZR-75-1 tumor cells+matrigel (total […]) were subcutaneously inoculated into the right back of each mouse. When the mean tumor volume reached about 137 mm^3, the mice were grouped for administration. • 4. Experimental administration: The compounds were dissolved in 5% DMSO+5% Tween 80+90% Saline, and administered intragastrically (PO) daily for five weeks. • 5. Experimental indicators: The experimental indicators were to investigate whether the tumor growth was inhibited or delayed or the tumor was cured. Tumor diameters were measured twice weekly using a vernier caliper. The tumor volume was calculated using the following formula: V=0.5a×b^2, where a and b represent the long diameter and short diameter of the tumor, respectively. • 6. The anti-tumor efficacy of the compounds was evaluated by TGI (%) or relative tumor proliferation rate T/C (%). TGI (%) refers to the tumor growth inhibition rate. Calculation of TGI (%):TGI (%)=[(1−(mean tumor volume at the end of administration in a treatment group—mean tumor volume at the start of administration in the treatment group))/(mean tumor volume at the end of treatment in the solvent control group—mean tumor volume at the start of treatment in the solvent control group)]×100%. The calculation formula for the relative tumor proliferation rate T/C (%) was as follows: T/C %=TRTV/CRTV×100% (TRTV:RTV of the treatment group; CRTV:RTV of the negative control group). The relative tumor volume (RTV) was calculated based on the tumor measurement results using the following formula: RTV=Vt/V0, where V0 represents the mean tumor volume measured at the time of grouping for administration (i.e., PG-D0), and Vt represents the mean tumor volume at a certain measurement. TRTV and CRTV were derived from data measured on the same day.
The mean and standard error of mean (SEM) of tumor volume at each time point for each group were included. The differences in tumor volume and tumor weight among the groups were statistically analyzed. For comparisons among three or more groups, one-way ANOVA was used for analysis. […] The analysis was performed using SPSS 17.0, and p<0.05 was considered to indicate a significant difference.
For comparisons between different doses of the same drug or different drugs at the same dose, two-way ANOVA was used for analysis, and the Bonferroni method was applied for testing. The analysis was performed using GraphPad Prism 9.0, and p<0.05 was considered to indicate a significant difference. On day 35 after the start of administration, the data between different doses of the same drug or different drugs at the same dose were analyzed using one-way ANOVA. […] The analysis was performed using SPSS 17.0, and p<0.05 was considered to indicate a significant difference.

SMILES	T/C (0.01 mg/kg PO QD) [%]	TGI (0.01 mg/kg PO QD) [%]	mean tumor volume (0.01 mg/kg PO QD)	efficacy compared to PF-8144 (0.1 mg/kg PO QD)	T/C (0.1 mg/kg PO QD) [%]	TGI (0.1 mg/kg PO QD) [%]	mean tumor volume (0.1 mg/kg PO QD) [mm^3]	T/C (2 mg/kg PO QD) [%]	TGI (2 mg/kg PO QD) [%]	mean tumor volume (2 mg/kg PO QD) [mm^3]	body weight changes compared to the PF-8144 group
COc1ccc2c(c1S(=O)(=O)Nc1noc3cc(Cn4cccn4)c(F)c(OC)c13)OCCO2 [Compound 28, N-(6-((1H-Pyrazol-1-yl)methyl)-5-fluoro-4-methoxybenzo[d]isoxazol-3-yl)-6-methoxy-2,3-dihydrobenzo[b][1,4]dioxine-5-sulfonamide]	76.14	30.94	1,017 mm^3	significantly superior in efficacy to PF-8144	11.36	98.07	162	0.84	109.69	12	no statistically significant difference
COc1ccc2c(c1S(=O)(=O)Nc1noc3cc(Cn4cccn4)c(F)c(OC)c13)OCC=C2 [Compound 101, N-(6-((1H-Pyrazol-1-yl)methyl)-5-fluoro-4-methoxybenzo[d]isoxazol-3-yl)-7-methoxy-2H-chromene-8-sulfonamide]	19.06	89.81	264 mm^3	significantly superior in efficacy to PF-8144	1.79	108.64	25	0.96	109.56	14	no statistically significant difference
COc1ccccc1S(=O)(=O)Nc1noc2cc(Cn3cccn3)cc(OC)c12 [PF-8144, reference compound]	72.71	30.19	1,035 mm^3	–	40.77	65.53	580	2.51	107.85	36	–
